Assay in all cases: NCI tumour cell line growth inhibition, 48 h
For assay [1], the system named is IGROV1 ovarian.
The test system of assay [2] is SK-MEL-2 melanoma.
Assay [3] deals with SF-268 CNS.
Assay [4] deals with HCT-116 colon.
Assay [5] relates to UO-31 renal.
The test system of assay [6] is SK-MEL-5 melanoma.
Assay [7] deals with MDA-MB-435.
Assay [8] has as its system SR leukemia.

SMILES strings stand for the structures.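 1) Cells in 96-well plates. 2) Compound, 48 h, 5 concentrations. 3) Linear interpolation between surrounding doses. 4) Unreached endpoint = highest concentration. The concentration for 50% growth inhibition is given as GI50. At the TGI there is no net growth.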 Bounds are passed on as bounds.

Consider `COC(=O)Nc1nc2ccc(C(=O)c3ccc(F)cc3)cc2[nH]1`, for which the GI50 is 0.513 µM in assay [1]; 4.14 µM in assay [2]; 0.644 µM in assay [3]; 0.146 µM in assay [4]; 2.29 µM in assay [5]; 0.242 µM in assay [6]. The GI50 in assay [7] was 0.0335 µM; in assay [8] it was 0.0442 µM. For the same compound, the TGI in assay [1] is above 66.1 µM; in assay [2], above 49.8 µM; in assay [3], 7.65 µM; in assay [4], above 100 µM; in assay [5] it was above 100 µM; in assay [6], above 24.2 µM. Further, the TGI in assay [7] is 0.155 µM; in assay [8], above 100 µM.

Turning to `COc1cc2c(cc1[N+](=O)[O-])C(=O)C(Br)(Br)CCC2`, the TGI in assay [1] came out at 2.93 µM; in assay [2], 4.8 µM; in assay [3], 15.6 µM; in assay [4] it was 1.87 µM; in assay [5], 3.23 µM; in assay [6], 3.77 µM. In addition, the TGI was 10.9 µM in assay [7] and 4.96 µM in assay [8].

On to `CO/C(=C1/NC(=O)C(Cc2ccc(O)c(Br)c2)N(C)C(=O)C(C)NC(=O)CCC/C=C(\C)CCC(C)OC1=O)c1ccccc1` (stereo unspecified), for which the GI50 in assay [1] was 0.0199 µM; in assay [3], 0.0267 µM; in assay [4] it was below 0.0146 µM; in assay [5], 0.0192 µM; in assay [6] it was 0.0327 µM; in assay [7] it was 0.0385 µM. The TGI in assay [1] was determined as 0.0465 µM; in assay [2], 0.0469 µM; in assay [3] it was 0.0767 µM; in assay [5] it was 0.0458 µM; in assay [6], 0.387 µM; in assay [7] it was 13.3 µM. Further, in assay [8], the TGI was above 100 µM.

For `O=C(O)c1ccc(/C=N/N=C2c3ccccc3-c3ccccc32)cc1`, the TGI in assay [1] is above 100 µM; in assay [2], 75.1 µM; in assay [3], 89.3 µM; in assay [4], above 100 µM; in assay [5] it was above 100 µM; in assay [6] it was above 100 µM. Further, the TGI in assay [7] and in assay [8] was above 100 µM each time.

Take `CC/C(=C(/c1ccc(OCCN(C)C)cc1)c1ccc(OC(=O)CCCCCCCCC(=O)c2c(C)[nH]c(/C=C3\N=C(c4ccc[nH]4)C=C3OC)c2C)cc1)c1ccccc1`: the GI50 in assay [1] was 23.1 µM; in assay [2] it was 30.7 µM; in assay [3] it was 6.63 µM; in assay [4] it was 3.36 µM; in assay [5], 4.45 µM; in assay [6] it was 1.61 µM. The values for the GI50 in assay [7] and in assay [8] were 4.63 µM and 4.1 µM, respectively. Moreover, the TGI in assay [1] was above 100 µM; in assay [2], above 100 µM; in assay [3] it was above 100 µM; in assay [4], 21.8 µM; in assay [5] it was above 100 µM; in assay [6], 3.2 µM. Also, the TGI in assay [7] and in assay [8] was above 100 µM in each case.

As for `Fc1ccc(Nc2nc3nonc3nc2Nc2ccc(I)cc2)cc1`, the GI50 in assay [1] is 0.217 µM; in assay [2] it was 0.213 µM; in assay [3], 0.367 µM; in assay [4], 0.24 µM; in assay [5], 0.156 µM; in assay [6] it was 0.147 µM. Moreover, the GI50 was 0.276 µM in assay [7] and 0.252 µM in assay [8]. For the same compound, the TGI in assay [1] stood at 13.3 µM; in assay [2] it was 0.617 µM; in assay [3], 17.9 µM; in assay [4], 11.3 µM; in assay [5], 0.858 µM; in assay [6], 0.325 µM. The TGI stood at 10.8 µM in assay [7] and 1.91 µM in assay [8].

As to `Cc1[nH]nc(C(=O)N/N=C/c2ccccc2Cl)c1N=NN(C)C`, the TGI in assay [1], in assay [2], in assay [3], in assay [4], in assay [5] and in assay [6] was above 100 µM in each case. For the same compound, the TGI in assay [7] and in assay [8] was above 100 µM in each case.

In the case of `CN(C)C1CN(C(=O)c2cc(-c3ccc4ncnc(N5CCc6cc(F)c(Cl)cc65)c4c3)cnc2N)C1`, the GI50 is 0.223 µM in assay [1]; 1.09 µM in assay [2]; 0.652 µM in assay [3]; 0.728 µM in assay [4]; 0.237 µM in assay [5]; 1.54 µM in assay [6]. The values for the GI50 in assay [7] and in assay [8] were 0.687 µM and 1.17 µM, respectively. The TGI is 1.23 µM in assay [1]; 3.77 µM in assay [2]; above 100 µM in assay [3]; above 100 µM in assay [5]; 2.92 µM in assay [6]; above 100 µM in assay [8].

Regarding `COc1cc(C)[nH]c(=O)c1CNC(=O)c1c(C)n([C@H](C)C2CCN(CC(F)(F)F)CC2)c2ccccc12`, the GI50 was 49.2 µM in assay [1]; 47.3 µM in assay [2]; 80.6 µM in assay [3]; 59.3 µM in assay [4]; 28.2 µM in assay [5]; 19 µM in assay [6]. Also, the values for the GI50 in assay [7] and in assay [8] were 46 µM and 51.8 µM, respectively. The TGI in assay [1] was above 100 µM; in assay [2], above 100 µM; in assay [3], above 100 µM; in assay [4], above 100 µM; in assay [5], above 100 µM; in assay [6], 54.4 µM. The TGI in assay [7] and in assay [8] was above 100 µM each time.

With `NC(=O)c1csc(-c2ccc(CO)o2)n1`, the TGI in assay [1], in assay [2], in assay [3], in assay [4], in assay [5] and in assay [6] was above 100 µM in each case. In addition, the TGI in assay [7] and in assay [8] was above 100 µM in each case.

In the case of `O=c1/c(=C\c2ccc(Br)cc2)sc2n1C(c1ccc(Br)cc1)C1=C(N=2)c2ccc3ccccc3c2OCC1` (stereo unspecified), the GI50 in assay [1], in assay [2], in assay [3], in assay [4], in assay [5] and in assay [6] was above 100 µM each time. The GI50 in assay [7] is above 100 µM; in assay [8], 35.4 µM. Also, the TGI in assay [1], in assay [2], in assay [3], in assay [4], in assay [5] and in assay [6] was above 100 µM each time. Besides, the TGI in assay [7] and in assay [8] was above 100 µM throughout.

Regarding `Cc1cc(C)c2c(c1)N(C)c1ncnc(-n3cnc4cc(C)ccc43)c1CC2C` (stereo unspecified), the GI50 in assay [1] was 5.46 µM; in assay [2], 4.21 µM; in assay [3], 6.04 µM; in assay [4], 3.08 µM; in assay [5] it was 2.5 µM; in assay [6], 2.24 µM. The results for the GI50 in assay [7] and in assay [8] were 2.44 µM and 0.787 µM, respectively. Further, the TGI in assay [1] was above 100 µM; in assay [2], 26.6 µM; in assay [3], above 100 µM; in assay [4], 14.6 µM; in assay [5], 16.2 µM; in assay [6] it was 5.34 µM. The TGI was found to be 10.6 µM in assay [7] and 8.62 µM in assay [8].

For `COc1cc2c(cc1OCCCN1CCN(C(=S)SCCC(C#N)(c3ccccc3)c3ccccc3)CC1)N=C[C@@H]1CCCN1C2=O`, the GI50 is 0.381 µM in assay [1]; 1.08 µM in assay [2]; 0.386 µM in assay [3]; 0.388 µM in assay [4]; 1.1 µM in assay [5]; 1.31 µM in assay [6]. The GI50 in assay [7] was 0.555 µM; in assay [8], 0.431 µM. Also, the TGI in assay [1] came out at 1.74 µM; in assay [2], 2.91 µM; in assay [4] it was 1.56 µM; in assay [5], 2.32 µM; in assay [6] it was 2.75 µM; in assay [7] it was 2.94 µM.

For the compound `COC(=O)c1cccc(NC(=O)c2ccc(NC3=C(Cl)C(=O)N(Cc4ccccc4)C3=O)cc2)c1`, the GI50 in assay [1] was 0.176 µM; in assay [2] it was 14.5 µM; in assay [3], 23 µM; in assay [4], 3.49 µM; in assay [5], 1.7 µM; in assay [6], 16.5 µM. The GI50 was 14.3 µM in assay [7] and 1.87 µM in assay [8]. Also, the TGI was found to be 3.34 µM in assay [1]; 44.2 µM in assay [2]; 54.9 µM in assay [3]; 14.9 µM in assay [4]; 3.31 µM in assay [5]; 34 µM in assay [6]. The TGI in assay [7] is 34.2 µM; in assay [8], 7.56 µM.

For the compound `C[C@]12CC[C@@H]3c4ccc(OC(=O)N(CCCl)CCCl)cc4CC[C@H]3[C@@H]1CC[C@@H]2OP(=O)(O)O`, the GI50 is above 100 µM in assay [1]; 41.8 µM in assay [2]; above 75.5 µM in assay [3]; 41.9 µM in assay [4]; 79.9 µM in assay [5]; 37.7 µM in assay [6]. The GI50 in assay [7] is 15.6 µM; in assay [8] it was 9.82 µM. Further, the TGI in assay [1], in assay [2], in assay [3], in assay [4], in assay [5] and in assay [6] was above 100 µM each time. For the same compound, the TGI turned out to be 50.4 µM in assay [7] and 33.3 µM in assay [8].

(Values after PubChem BioAssay (NCI).)
